From patent US12065438B2, “Substituted tricyclic compounds as indoleamine 2,3-dioxygenase inhibitors” (Merck Sharp & Dohme LLC, priority 2019, dated 2024)

Columns and labels:
IDO1 [1] = biological target: T1, IDO1 (Homo sapiens, UniProt P14902); test: IDO1 Human Whole Blood Assay; assay type: cell-based; details: LPS and IFNγ 100 ng/mL, overnight (18 h), kynurenine by LC/MS/MS
Method: IDO1 Human Whole Blood Assay
Compounds to be tested were serially diluted in ten 3-fold steps in DMSO starting from 10 mM. 3 μL of compound dilutions or DMSO alone were then dispensed from the dilution plate into a polypropylene 96-well assay plate containing 97 μL of RPMI medium using an Echo 555 acoustic liquid handler (Labcyte). LPS and IFNγ was prepared in RPMI medium to a 10× of final conc. (1000 ng/mL), final concentration is 100 ng/mL.
240 μL of blood was transferred to each of the wells of a v-bottom 96 well plate. 30 μL of compound was transferred from intermediate dilution plate, and incubated for 15 min. 30 μL from stimulants was then transferred to blood and mixed thoroughly. Plate was covered with breathable membrane and incubated at 37° C. for overnight (18 h).
On day 2, isotope labeled standard solutions of kynurenine and tryptophan was made in water at 10× concentration and 30 μL was added to the blood at 3 μM final concentration. The assay plates were centrifuged at 300×G for 10 min with no brake to separate plasma from red blood cells. 60 μL of plasma samples was removed without disturbing red blood cells. Plasma was diluted with RPMI in 1:1 ratio and proteins were precipitated out with two volumes of Acetonitrile. The plates were centrifuged at 4000×G for 60 min. 20 μL of supernatant was carefully transferred to a 384 well plate containing 40 μL of 0.1% formic acid in water and analyzed by LC/MS/MS.
LC/MS/MS analyses were performed using Thermo Fisher's LX4-TSQ Quantum Ultra system. This system consists of four Agilent binary high-performance liquid chromatography (HPLC) pumps and a TSQ Quantum Ultra triple quadrupole MS/MS instrument. For each sample, 5 μL were injected onto an Atlantis T3 column (2.1 mm×150 mm, 3 μm particle size) from Waters. The mobile phase gradient pumped at 0.8 mL/min was used to elute the analytes from the column at 25° C. The elution started at 0% B increasing linearly to 25% B at 6.5 min, holding at 25% for 1 min, re-equilibrating to 10 min. Mobile phase A consisted of 0.1% formic acid in water. Mobile phase B consisted of 0.1% of formic acid in acetonitrile. Data were acquired in positive mode using a HESI interface. The operational parameters for the TSQ Quantum Ultra instrument were a spray voltage of 4000 V, capillary temperature of 380° C., vaporizer temperature 400° C., shealth gas 60 arbitrary units, Aux gas 20 arbitrary units, tube lens 85 and collision gas 1.2 mTorr. SRM chromatograms of kynurenine (Q1: 209.2>Q3:94.0) and internal standard (Q1: 215.3>Q3:98.2) were collected for 90 sec. The peak area was integrated by Xcalibur Quan software. The ratios between the kynurenine generated in the reaction and 2D6-Kynurenine spiked-in internal standard were used to generate percentage inhibition and IC50 values. Compounds were titrated and IC50's were calculated by 4 parameter sigmoidal curve fitting formula.

IDO1 [2] = biological target: T1, IDO1; test: IDO1 Cellular Assay in HeLa Cells Stimulated with IFNγ; assay type: cell-based; design: endogenous in cells; host or cells: HeLa cells stimulated with IFNγ; details: HeLa cells stimulated with IFNγ 100 ng/mL, 300 uM L-tryptophan, about 48 hours, fluorescence readout; read-out: IDO1 HELA Cell Assay, IC50
Method: Biological Assays IDO1 Cellular Assay in HeLa Cells Stimulated with IFNγ HeLa cells were cultured in complete HeLa culture medium (90% EMEM, 10% heat-inactivated fetal bovine serum) and expanded to about 1×10^9 cells. The cells were then collected and frozen down at 1×10^7 cells/vial in 1 mL frozen medium (90% complete HeLa culture medium, 10% DMSO). Compounds to be tested were serially diluted in ten 3-fold steps in DMSO starting from 10 mM DMSO stocks in Echo low volume plate(s). Compound dilutions or DMSO alone were then dispensed from the dilution plate(s) into Greiner black 384-well assay plate(s) (catalog #781086, 50 nL/well) using an Echo 550 acoustic liquid handler (Labcyte). Frozen HeLa cells were thawed and transferred into HeLa assay medium (99% complete HeLa culture medium, 1% Pen/Strep) with 20 mL medium/vial of cells. The cells were spun down at 250 g in a table top centrifuge for 5 min and suspended in same volume of HeLa assay medium. The cells were then counted and adjusted to a density of 2×10^5 cells/mL in HeLa assay medium. Sterile L-tryptophan were added to the cells with final concentration of 300 uM L-tryptophan. A small aliquot (2 mL/plate) of HeLa cells were set aside and were not treated with IFNγ, to serve as the Max-E control. The rest of HeLa cells were added with sterile IFNγ (Cat #285-IF, R & D systems) with a final concentration of 100 ng/mL. HeLa cells with and without IFNγ were dispensed to the respective wells of 384-well assay plates containing the compounds. The plates were incubated for about 48 hours at a 37° C., 5% CO2 incubator. Afterwards, 12 μL of 0.5 M methyl isonipecotate in dimethyl sulfoxide were added into each well and the plates were sealed and incubated at 37° C. without CO2 overnight. The plates were centrifuged for 1 min at 200×g. The resulting fluorescence was measured in a Spectramax plate reader (Molecular Devices) with a 400 nm excitation filter and a 510 nm emission filter. The fluorescence intensity of each well was corrected for the background observed in wells with non-IFNγ-treated cells and was expressed as a fraction of the intensity observed in wells of IFNγ-treated cells and DMSO only. Potencies were calculated by […] least squares fit to the four parameter logistic IC50 equation.

T1 sequence (P14902 whole entry): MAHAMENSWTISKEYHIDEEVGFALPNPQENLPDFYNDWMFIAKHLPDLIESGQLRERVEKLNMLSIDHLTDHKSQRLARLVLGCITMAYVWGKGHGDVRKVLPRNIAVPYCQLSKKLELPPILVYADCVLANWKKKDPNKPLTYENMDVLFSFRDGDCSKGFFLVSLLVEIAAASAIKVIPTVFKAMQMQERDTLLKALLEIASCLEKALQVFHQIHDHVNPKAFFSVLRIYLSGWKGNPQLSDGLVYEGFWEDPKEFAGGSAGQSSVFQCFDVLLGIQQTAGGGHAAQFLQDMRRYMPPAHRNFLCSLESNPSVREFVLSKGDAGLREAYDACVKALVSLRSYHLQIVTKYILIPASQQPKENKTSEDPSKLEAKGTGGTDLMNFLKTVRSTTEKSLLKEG

| SMILES | IC50 (IDO1 [1]) | IC50 (IDO1 [2]) |
| --- | --- | --- |
| O=C(NC1(c2ccc3c(n2)[C@@H]2C[C@@H]2CN3C(=O)OC2CC2)CC1)c1ccc(F)cc1 (single isomer, unassigned) [Example 21] | 946 nM | 6.03 nM |
| CC(C)(NC(=O)c1ccc(F)cc1)c1ccc2c(n1)C1CC1CN2C(=O)OC1CC1 (single isomer, unassigned) [Example 32, cyclopropyl 2-(2-(4-fluorobenzamido)propan-2-yl)-6,6a,7,7a-tetrahydro-5H-cyclopropa[c][1,5]naphthyridine-5-carboxylate] | 778 nM | 7.56 nM |
| CC(C)(NC(=O)c1ccc(F)cc1)c1ccc2c(n1)[C@@H]1C[C@@H]1CN2C(=O)OC1CC1 (single isomer, unassigned) [Example 33] | 465 nM | 4.05 nM |

These reach a lower IC50 (IDO1 [1]). Values come first.

| IC50 (IDO1 [1]) | IC50 (IDO1 [2]) | SMILES |
| --- | --- | --- |
| 105 nM | 3.5 nM | CCc1nccc(N2CC3CC3c3nc(C4(NC(=O)c5ccc(F)cc5)CC4)ccc32)n1 (centres unmarked) [Example 14, N-(1-(5-(2-ethylpyrimidin-4-yl)-6,6a,7,7a-tetrahydro-5H-cyclopropa[c][1,5]-naphthyridin-2-yl)cyclo-propyl)-4-fluorobenzamide] |
| 37 nM | 2.92 nM | O=C(C1CC1)N1CC2CC2c2cc(C3(C(=O)Nc4ccc(F)cc4)CCC3)ccc21 (single isomer, unassigned) [Example 4, 1-(3-(cyclopropanecarbonyl)-1a,2,3,7b-tetrahydro-1H-cyclopropa[c]quinolin-6-yl)-N-(4-fluorophenyl)cyclobutanecarboxamide] |
| 50 nM | 4.4 nM | O=C(NC1(c2ccc3c(n2)C2CC2CN3c2ccnc(C3CC3)n2)CC1)c1ccc(F)cc1 (centres unmarked) [Example 15, N-(1-(5-(2-cyclopropyl-pyrimidin-4-yl)-6,6a,7,7a-tetrahydro-5H-cyclo-propa[c][1,5]naphthyridin-2-yl)cyclopropyl)-4-fluorobenzamide] |
| 32 nM | 2.6 nM | O=C(NC1(c2ccc3c(n2)C2CC2CN3c2ccnc(C3CC3)n2)CC1)c1ccc(F)cc1 (centres unmarked) [Example 16, N-(1-(5-(2-cyclopropyl-pyrimidin-4-yl)-6,6a,7,7a-tetrahydro-5H-cyclo-propa[c][1,5]naphthyridin-2-yl)cyclopropyl)-4-fluorobenzamide] |
